Measurements from ChEMBL document CHEMBL1124537, “The importance of the orientation of the C9 substituent to cannabinoid activity” (J Med Chem, 1989).
Calls of active or inactive are those of the source. The calls are words filed in the database; no cut-off is given here.

Columns and labels:
Type in all cases: functional, organism-based
Conditions in all cases: Cercopithecidae
Monkey [1] = test: Compound was tested for activity in rhesus monkey behavioral test; Active
Monkey [2] = test: Compound was tested for activity in rhesus monkey behavioral test; Inactive
Monkey [3] = test: Compound was tested for activity in rhesus monkey behavioral test; Minimal activity

| Compound | Activity (Monkey [1]) | Activity (Monkey [2]) | other results |
| --- | --- | --- | --- |
| CCCCCc1cc(O)c2c(c1)OC(C)(C)C1CC[C@H](C)CC21 (stereo partly specified) | Active |  |  |
| CCCCCc1cc(O)c2c(c1)OC(C)(C)C1C=C[C@H](C)CC21 (stereo partly specified) |  | inactive |  |
| CCCCCc1cc(O)c2c(c1)OC(C)(C)[C@@H]1CCC(C)=C[C@@H]21 | Active |  |  |
| C=C1CCC2C(C1)c1c(O)cc(CCCCC)cc1OC2(C)C (stereo unspecified) |  | inactive |  |
| CCCCCc1cc(O)c2c(c1)OC(C)(C)[C@@H]1CC=C(C)C[C@@H]21 | Active |  |  |
| CCCCCc1cc(O)c2c(c1)OC(C)(C)C1CC[C@@H](C)CC21 (stereo partly specified) |  |  | Activity (Monkey [3]): Minimal activity |
